Test results published in ChEMBL document CHEMBL5214929, “Updated chemical scaffolds of ABCG2 inhibitors and their structure-inhibition relationships for future development” (Eur J Med Chem, 2022).

Assays:
[1] = system: HEK293; assay: Cytotoxicity against HEK293 cells expressing ABCG2-482-T7 in presence of methotrexate; type: functional, cell-based; conditions: Homo sapiens
[2] = system: HEK293; assay: Cytotoxicity against HEK293 cells expressing ABCG2-482-R in presence of methotrexate; type: functional, cell-based; conditions: Homo sapiens
[3] = system: HEK293; assay: Cytotoxicity against HEK293 cells expressing ABCG2 in presence of methotrexate; type: functional, cell-based; conditions: Homo sapiens
[4] = Reversal of mitoxantrone resistance in human T8 cells; type: functional; conditions: T8 cell
[5] = system: MCF7; assay: Cytotoxicity against human MCF7 cells assessed as increase in cytotoxic drug half inhibitory concentration; type: functional, cell-based
[6] = molecular target: T1, Broad substrate specificity ATP-binding cassette transporter ABCG2 (Homo sapiens, UniProt Q9UNQ0); assay: Inhibition of ABCG2 (unknown origin) overexpressing in dog MDCK-II-BCRP cells measured after 30 mins by flow cytometric analysis; type: cell-based
T1 sequence (Q9UNQ0 whole entry): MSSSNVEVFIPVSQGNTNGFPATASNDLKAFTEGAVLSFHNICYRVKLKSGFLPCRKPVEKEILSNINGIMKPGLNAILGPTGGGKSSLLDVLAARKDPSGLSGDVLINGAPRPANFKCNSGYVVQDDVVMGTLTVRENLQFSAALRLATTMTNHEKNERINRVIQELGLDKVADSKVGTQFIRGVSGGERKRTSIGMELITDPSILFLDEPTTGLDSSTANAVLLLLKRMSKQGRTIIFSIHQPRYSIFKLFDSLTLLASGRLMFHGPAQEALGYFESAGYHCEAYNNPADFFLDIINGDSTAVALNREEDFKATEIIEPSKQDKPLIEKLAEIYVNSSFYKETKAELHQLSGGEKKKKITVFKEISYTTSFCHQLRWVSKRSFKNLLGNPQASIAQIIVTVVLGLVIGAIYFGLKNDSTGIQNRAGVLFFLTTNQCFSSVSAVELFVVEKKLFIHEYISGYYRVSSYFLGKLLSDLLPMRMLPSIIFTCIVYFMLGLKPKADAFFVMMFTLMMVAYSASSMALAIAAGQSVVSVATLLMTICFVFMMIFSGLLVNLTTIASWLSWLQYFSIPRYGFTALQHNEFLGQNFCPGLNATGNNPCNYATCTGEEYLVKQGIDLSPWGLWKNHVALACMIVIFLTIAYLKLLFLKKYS

[7] = system: HEK293; assay: Cytotoxicity against HEK293 cells expressing ABCG2-R-482 wildtype assessed as decrease in mitoxantrone half inhibitory concentration; type: functional, cell-based; conditions: Homo sapiens
[8] = system: HEK293; assay: Cytotoxicity against HEK293 cells expressing ABCG2-R-482 mutant assessed as decrease in mitoxantrone half inhibitory concentration; type: functional, cell-based; conditions: Homo sapiens
[9] = system: HEK293; assay: Cytotoxicity against HEK293 cells expressing ABCG2-R-482 in presence of methotrexate; type: functional, cell-based; conditions: Homo sapiens
[10] = molecular target: T1, Broad substrate specificity ATP-binding cassette transporter ABCG2; assay: Inhibition of ABCG2 (unknown origin)
[11] = molecular target: T1, Broad substrate specificity ATP-binding cassette transporter ABCG2; assay: Inhibition of ABCG2 (unknown origin) in Sf9 membrane vesicles using [3H] methotrexate as substrate; type: cell membranes
[12] = system: S1-M1-80; assay: Cytotoxicity against human S1M180 cells in presence of topotecan; type: functional, cell-based

COc1cc2nccc(Oc3ccc(NC(=O)C4(C(=O)Nc5ccc(F)cc5)CC4)cc3)c2cc1OC [CABOZANTINIB]
IC50 [1]: 34 nM | IC50 [2]: 27 nM

COc1cc2ncnc(Nc3ccc(F)c(Cl)c3)c2cc1NC(=O)/C=C/CN1CCCCC1 [DACOMITINIB ANHYDROUS]
IC50 [3]: 185 nM

CC(C)C[C@@H]1c2[nH]c3ccccc3c2C[C@H]2C(=O)N[C@H](CCCCNC(=O)OC(C)(C)C)C(=O)N12
EC90 [4]: 190 nM

C=CC(=O)Nc1cccc(Nc2nc(Nc3ccc(N4CCN(C(C)=O)CC4)cc3OC)ncc2C(F)(F)F)c1 [ROCILETINIB]
IC50 [1]: 7.2 nM | IC50 [2]: 11.9 nM

COc1cc2c(cc1OC)CN(CCc1ccc(NC(=O)c3cccc4c(=O)c5cccc(OC)c5[nH]c34)cc1)CC2 [ELACRIDAR]
EC90 [4]: 51 nM

Cc1cn(-c2cc(NC(=O)c3ccc(C)c(Nc4nccc(-c5cccnc5)n4)c3)cc(C(F)(F)F)c2)cn1 [NILOTINIB]
IC50 [1]: 147 nM | IC50 [2]: 128 nM

CC(C)C[C@@H]1c2[nH]c3ccccc3c2C[C@H]2C(=O)N[C@H](CCC(=O)OC(C)(C)C)C(=O)N12
EC90 [4]: 85 nM

COc1ccc2c3c([nH]c2c1)[C@@H](C=C(C)C)N1C(=O)[C@@H]2CCCN2C(=O)[C@@H]1C3
IC50 [5]: 1000 nM

COc1ccc(-c2c3occc3c(OC[C@H]3OC3(C)C)c3ccc(=O)oc23)cc1OC
IC50 [6]: 43.1 µM

Cc1[nH]c(/C=C2\C(=O)Nc3ccc(F)cc32)c(C)c1C(=O)N[C@H]1CCN(C(=O)N(C)C)C1 [VOROLANIB]
IC50 [7]: 15.5 nM | IC50 [8]: 58 nM

Nc1ncnc2c1c(-c1ccc(Oc3ccccc3)cc1)nn2C1CCCC1
IC50 [9]: 57 nM

Cn1cc(-c2cc3c(N4CCN(c5ncc([C@@](C)(N)c6ccc(F)cc6)cn5)CC4)ncnn3c2)cn1 [AVAPRITINIB]
IC50 [10]: 1.5 nM

COc1ccc2c3c([nH]c2c1)[C@@H](CC(C)C)N1C(=O)[C@@H](CCC(=O)OC(C)(C)C)NC(=O)[C@@H]1C3
EC90 [4]: 23 nM

C=CC(O)C#CC#CC/C=C\CCCCCCC (stereo not given)
IC50 [11]: 41.7 µM

COc1cc2/c(=N/c3ccc(Br)cc3F)nc[nH]c2cc1OCC1CCN(C)CC1 [VANDETANIB]
IC50 [12]: 1240 nM

C=CC(O)C#CC#CC(O)/C=C\CCCCCCC (stereo not given)
IC50 [11]: 29.7 µM
